Source: the kinase profiling compilation of Christmann-Franck et al. (2016)

Tests used:
Test in all cases: KINOMEscan competition binding
Details in all cases: compound 10.0 µM
MAP3K5 (human) = MAP3K5 (human) (UniProt Q99683)
NLK (human) = NLK (human) (UniProt Q9UBE8)
CHUK (human) = CHUK (human) (UniProt O15111)
FGFR2 (human) = FGFR2 (human) (UniProt P21802)
PAK2 (human) = PAK2 (human) (UniProt Q13177)
MAPK8 (human) = MAPK8 (human) (UniProt P45983)
NUAK2 (human) = NUAK2 (human) (UniProt Q9H093)
BMPR2 (human) = BMPR2 (human) (UniProt Q13873)
MAP2K1 (human) = MAP2K1 (human) (UniProt Q02750)
GAK (human) = GAK (human) (UniProt O14976)
AAK1 (human) = AAK1 (human) (UniProt Q2M2I8)
MAP3K4 (human) = MAP3K4 (human) (UniProt Q9Y6R4)
MAP3K9 (human) = MAP3K9 (human) (UniProt P80192)
INSR (human) = INSR (human) (UniProt P06213)
ACVR2B (human) = ACVR2B (human) (UniProt Q13705)
PIK3C2B (human) = PIK3C2B (human) (UniProt O00750)
MET (human) = MET (human) (UniProt P08581)
HCK (human) = HCK (human) (UniProt P08631)
EPHA2 (human) = EPHA2 (human) (UniProt P29317)
LRRK2 (human) = LRRK2 (human) (UniProt Q5S007)
MKNK1 (human) = MKNK1 (human) (UniProt Q9BUB5)
ERBB2 (human) = ERBB2 (human) (UniProt P04626)
RIOK2 (human) = RIOK2 (human) (UniProt Q9BVS4)
BRSK1 (human) = BRSK1 (human) (UniProt Q8TDC3)
[1] = target: JAK2 JH1 catalytic (human) (UniProt O60674)
TLK1 (human) = TLK1 (human) (UniProt Q9UKI8)
MAP3K12 (human) = MAP3K12 (human) (UniProt Q12852)
MATK (human) = MATK (human) (UniProt P42679)
ULK2 (human) = ULK2 (human) (UniProt Q8IYT8)
MAPKAPK2 (human) = MAPKAPK2 (human) (UniProt P49137)
RPS6KB1 (human) = RPS6KB1 (human) (UniProt P23443)
PLK3 (human) = PLK3 (human) (UniProt Q9H4B4)
CSNK1G2 (human) = CSNK1G2 (human) (UniProt P78368)
ERBB4 (human) = ERBB4 (human) (UniProt Q15303)
[2] = tested on: ABL1 (human), P00519 [T315I]
PKN1 (human) = PKN1 (human) (UniProt Q16512)
PLK4 (human) = PLK4 (human) (UniProt O00444)
PAK4 (human) = PAK4 (human) (UniProt O96013)
CSF1R (human) = CSF1R (human) (UniProt P07333)
[3] = tested on: BRAF (human), P15056 [V600E]
FLT3 (human) = FLT3 (human) (UniProt P36888)

JAK2 JH1 catalytic (human), sequence (O60674 whole entry, looked up): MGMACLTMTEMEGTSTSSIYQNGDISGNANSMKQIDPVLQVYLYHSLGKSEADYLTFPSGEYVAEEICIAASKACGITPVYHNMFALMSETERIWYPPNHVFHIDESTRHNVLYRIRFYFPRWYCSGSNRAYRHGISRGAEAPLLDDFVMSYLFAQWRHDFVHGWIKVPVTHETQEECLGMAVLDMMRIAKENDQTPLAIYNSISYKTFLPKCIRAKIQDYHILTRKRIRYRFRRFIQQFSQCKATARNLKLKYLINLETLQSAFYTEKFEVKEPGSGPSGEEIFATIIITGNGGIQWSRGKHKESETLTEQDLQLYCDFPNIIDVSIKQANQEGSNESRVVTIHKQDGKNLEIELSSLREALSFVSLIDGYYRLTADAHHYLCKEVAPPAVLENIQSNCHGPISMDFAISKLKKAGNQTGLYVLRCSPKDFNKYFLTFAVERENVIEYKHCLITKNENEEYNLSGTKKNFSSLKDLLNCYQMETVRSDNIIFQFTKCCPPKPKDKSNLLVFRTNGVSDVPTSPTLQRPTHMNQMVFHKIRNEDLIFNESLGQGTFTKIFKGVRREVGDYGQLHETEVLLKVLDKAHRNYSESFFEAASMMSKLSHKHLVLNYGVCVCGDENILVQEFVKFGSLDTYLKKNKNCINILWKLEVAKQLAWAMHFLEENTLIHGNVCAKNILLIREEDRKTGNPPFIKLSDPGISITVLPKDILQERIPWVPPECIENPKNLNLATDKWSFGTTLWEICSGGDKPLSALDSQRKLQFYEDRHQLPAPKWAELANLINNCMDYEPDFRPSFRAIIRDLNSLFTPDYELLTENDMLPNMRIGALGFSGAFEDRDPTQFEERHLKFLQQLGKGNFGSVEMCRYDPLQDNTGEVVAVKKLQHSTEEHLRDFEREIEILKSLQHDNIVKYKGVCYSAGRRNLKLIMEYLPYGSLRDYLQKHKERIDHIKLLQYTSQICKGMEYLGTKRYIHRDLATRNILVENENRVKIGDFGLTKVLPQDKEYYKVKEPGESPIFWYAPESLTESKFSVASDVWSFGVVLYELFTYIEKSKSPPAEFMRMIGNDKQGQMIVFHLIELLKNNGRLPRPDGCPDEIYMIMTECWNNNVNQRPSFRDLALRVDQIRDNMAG
MKNK1 (human), sequence (Q9BUB5 whole entry, looked up): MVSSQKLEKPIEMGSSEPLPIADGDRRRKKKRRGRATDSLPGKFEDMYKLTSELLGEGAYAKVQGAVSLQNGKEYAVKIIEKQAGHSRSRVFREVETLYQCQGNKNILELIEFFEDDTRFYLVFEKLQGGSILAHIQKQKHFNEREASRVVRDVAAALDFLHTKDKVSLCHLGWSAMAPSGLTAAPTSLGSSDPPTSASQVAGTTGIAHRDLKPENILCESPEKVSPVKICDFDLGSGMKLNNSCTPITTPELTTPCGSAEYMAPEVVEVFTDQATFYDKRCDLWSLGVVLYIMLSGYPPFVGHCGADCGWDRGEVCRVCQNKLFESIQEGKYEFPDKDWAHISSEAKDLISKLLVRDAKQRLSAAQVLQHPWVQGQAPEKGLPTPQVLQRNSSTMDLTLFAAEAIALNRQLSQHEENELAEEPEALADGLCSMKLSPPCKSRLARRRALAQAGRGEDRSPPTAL
BRAF (human), P15056 [V600E], sequence (P15056 whole entry V600E, looked up): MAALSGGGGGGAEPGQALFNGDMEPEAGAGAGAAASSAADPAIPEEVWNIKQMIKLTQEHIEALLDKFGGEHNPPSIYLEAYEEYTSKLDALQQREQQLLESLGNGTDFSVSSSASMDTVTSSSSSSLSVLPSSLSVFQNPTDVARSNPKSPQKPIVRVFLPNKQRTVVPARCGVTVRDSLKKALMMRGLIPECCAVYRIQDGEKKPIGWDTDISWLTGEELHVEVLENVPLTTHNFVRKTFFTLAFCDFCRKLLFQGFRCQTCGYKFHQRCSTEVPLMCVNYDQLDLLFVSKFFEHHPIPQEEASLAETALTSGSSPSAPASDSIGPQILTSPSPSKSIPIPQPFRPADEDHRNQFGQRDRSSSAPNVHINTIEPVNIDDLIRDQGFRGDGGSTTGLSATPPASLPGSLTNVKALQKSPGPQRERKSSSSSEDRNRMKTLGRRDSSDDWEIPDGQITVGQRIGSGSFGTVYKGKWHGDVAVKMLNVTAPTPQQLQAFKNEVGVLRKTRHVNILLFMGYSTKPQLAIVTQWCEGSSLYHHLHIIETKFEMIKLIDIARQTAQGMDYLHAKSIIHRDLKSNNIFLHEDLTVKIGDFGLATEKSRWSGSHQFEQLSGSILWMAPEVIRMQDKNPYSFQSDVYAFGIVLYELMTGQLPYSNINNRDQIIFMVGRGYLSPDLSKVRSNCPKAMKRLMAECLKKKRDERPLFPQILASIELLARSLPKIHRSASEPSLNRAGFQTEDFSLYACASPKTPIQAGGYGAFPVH
ERBB2 (human), sequence (P04626 whole entry, looked up): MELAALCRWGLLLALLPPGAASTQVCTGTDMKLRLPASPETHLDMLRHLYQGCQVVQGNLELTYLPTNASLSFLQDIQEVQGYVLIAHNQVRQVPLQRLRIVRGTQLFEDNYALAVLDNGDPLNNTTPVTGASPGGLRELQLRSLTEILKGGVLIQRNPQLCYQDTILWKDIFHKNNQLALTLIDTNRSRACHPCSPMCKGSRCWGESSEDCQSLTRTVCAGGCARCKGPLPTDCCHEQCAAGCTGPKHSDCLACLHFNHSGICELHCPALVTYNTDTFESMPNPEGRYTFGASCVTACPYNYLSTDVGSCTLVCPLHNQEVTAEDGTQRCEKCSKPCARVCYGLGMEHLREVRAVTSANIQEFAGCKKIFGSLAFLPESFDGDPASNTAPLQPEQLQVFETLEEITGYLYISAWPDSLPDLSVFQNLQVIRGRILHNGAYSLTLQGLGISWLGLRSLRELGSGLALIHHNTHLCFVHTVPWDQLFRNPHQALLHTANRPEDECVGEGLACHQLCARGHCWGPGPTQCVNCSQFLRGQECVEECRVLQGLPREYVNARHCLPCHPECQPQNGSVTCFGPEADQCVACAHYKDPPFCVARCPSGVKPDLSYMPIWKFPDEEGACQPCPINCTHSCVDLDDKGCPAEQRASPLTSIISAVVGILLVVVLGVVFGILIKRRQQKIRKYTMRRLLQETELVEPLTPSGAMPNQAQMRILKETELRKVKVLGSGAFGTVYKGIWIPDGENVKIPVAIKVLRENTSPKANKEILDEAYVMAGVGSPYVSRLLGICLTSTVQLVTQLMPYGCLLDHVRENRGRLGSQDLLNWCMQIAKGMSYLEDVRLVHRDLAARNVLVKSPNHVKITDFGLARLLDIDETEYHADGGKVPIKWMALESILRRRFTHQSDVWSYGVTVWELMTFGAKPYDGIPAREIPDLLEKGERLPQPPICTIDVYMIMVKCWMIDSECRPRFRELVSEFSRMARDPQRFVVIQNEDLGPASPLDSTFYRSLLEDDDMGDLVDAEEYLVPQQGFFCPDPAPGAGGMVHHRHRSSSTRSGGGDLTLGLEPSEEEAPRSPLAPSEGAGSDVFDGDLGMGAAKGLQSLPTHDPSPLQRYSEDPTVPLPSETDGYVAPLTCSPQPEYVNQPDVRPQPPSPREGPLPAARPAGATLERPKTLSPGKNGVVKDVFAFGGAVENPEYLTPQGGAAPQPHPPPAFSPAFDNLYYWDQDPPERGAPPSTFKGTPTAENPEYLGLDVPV
PAK4 (human), sequence (O96013 whole entry, looked up): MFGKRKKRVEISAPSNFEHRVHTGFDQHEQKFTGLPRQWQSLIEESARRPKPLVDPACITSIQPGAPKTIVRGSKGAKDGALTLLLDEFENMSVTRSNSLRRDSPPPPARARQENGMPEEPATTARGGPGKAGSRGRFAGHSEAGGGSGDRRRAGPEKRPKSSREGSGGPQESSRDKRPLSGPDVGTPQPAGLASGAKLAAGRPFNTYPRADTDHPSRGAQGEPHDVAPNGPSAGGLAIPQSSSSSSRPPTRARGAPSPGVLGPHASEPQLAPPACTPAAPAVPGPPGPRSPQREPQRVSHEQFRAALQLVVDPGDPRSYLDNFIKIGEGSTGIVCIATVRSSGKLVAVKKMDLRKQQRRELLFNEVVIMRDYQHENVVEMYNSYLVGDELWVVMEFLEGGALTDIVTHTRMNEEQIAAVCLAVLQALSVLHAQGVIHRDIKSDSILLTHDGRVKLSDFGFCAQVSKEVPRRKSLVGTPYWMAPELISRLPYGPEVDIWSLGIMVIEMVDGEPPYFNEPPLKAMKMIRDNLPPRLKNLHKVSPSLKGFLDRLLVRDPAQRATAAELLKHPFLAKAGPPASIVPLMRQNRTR
RIOK2 (human), sequence (Q9BVS4 whole entry, looked up): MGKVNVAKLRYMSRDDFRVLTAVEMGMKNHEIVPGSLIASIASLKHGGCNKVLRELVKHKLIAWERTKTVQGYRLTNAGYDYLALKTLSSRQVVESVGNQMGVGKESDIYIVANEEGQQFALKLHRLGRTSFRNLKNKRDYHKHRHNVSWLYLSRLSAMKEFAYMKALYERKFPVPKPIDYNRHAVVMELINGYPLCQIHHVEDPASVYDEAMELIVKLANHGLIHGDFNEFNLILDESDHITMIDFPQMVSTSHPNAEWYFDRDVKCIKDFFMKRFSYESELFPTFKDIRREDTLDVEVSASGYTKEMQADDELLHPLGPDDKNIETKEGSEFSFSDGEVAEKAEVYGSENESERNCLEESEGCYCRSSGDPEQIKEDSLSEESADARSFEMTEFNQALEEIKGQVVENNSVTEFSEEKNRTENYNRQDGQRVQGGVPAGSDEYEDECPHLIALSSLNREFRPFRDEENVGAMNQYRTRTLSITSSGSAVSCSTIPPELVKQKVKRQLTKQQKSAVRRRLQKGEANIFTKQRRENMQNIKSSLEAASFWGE

In the case of `O=C(Nc1ccc(Oc2ncnc3[nH]ncc23)cc1)Nc1ccc(Cl)c(C(F)(F)F)c1`, the kinase still bound, per cent of control (MAP3K5 (human)) is reported as 90%, the kinase still bound, per cent of control (NLK (human)) is reported as 44% and the kinase still bound, per cent of control (CHUK (human)) is reported as 51%. The kinase still bound, per cent of control (FGFR2 (human)) was 51%, the kinase still bound, per cent of control (PAK2 (human)) was 97% and the kinase still bound, per cent of control (MAPK8 (human)) was 85%. The kinase still bound, per cent of control (NUAK2 (human)) was 73%, the kinase still bound, per cent of control (BMPR2 (human)) was 81% and the kinase still bound, per cent of control (MAP2K1 (human)) was 76%. It also gave a kinase still bound, per cent of control (GAK (human)) of 90%, a kinase still bound, per cent of control (AAK1 (human)) of 85% and a kinase still bound, per cent of control (MAP3K4 (human)) of 87%. It also gave a kinase still bound, per cent of control (MAP3K9 (human)) of 100%, a kinase still bound, per cent of control (INSR (human)) of 84% and a kinase still bound, per cent of control (ACVR2B (human)) of 100%. It also gave a kinase still bound, per cent of control (PIK3C2B (human)) of 80%, a kinase still bound, per cent of control (MET (human)) of 58% and a kinase still bound, per cent of control (HCK (human)) of 32%. For the same molecule, the kinase still bound, per cent of control (EPHA2 (human)) was 37%, the kinase still bound, per cent of control (LRRK2 (human)) was 83% and the kinase still bound, per cent of control (MKNK1 (human)) was 5.4%. For the same molecule, the kinase still bound, per cent of control (ERBB2 (human)) was 100%, the kinase still bound, per cent of control (RIOK2 (human)) was 100% and the kinase still bound, per cent of control (BRSK1 (human)) was 86%. For the same molecule, the kinase still bound, per cent of control [1] was 80%, the kinase still bound, per cent of control (TLK1 (human)) was 100% and the kinase still bound, per cent of control (MAP3K12 (human)) was 100%. The kinase still bound, per cent of control (MATK (human)) was 100%, the kinase still bound, per cent of control (ULK2 (human)) was 82% and the kinase still bound, per cent of control (MAPKAPK2 (human)) was 100%. For the same molecule, the kinase still bound, per cent of control (RPS6KB1 (human)) was 69%, the kinase still bound, per cent of control (PLK3 (human)) was 16% and the kinase still bound, per cent of control (CSNK1G2 (human)) was 94%. The kinase still bound, per cent of control (ERBB4 (human)) was 94%, the kinase still bound, per cent of control [2] was 46% and the kinase still bound, per cent of control (PKN1 (human)) was 100%. For the same molecule, the kinase still bound, per cent of control (PLK4 (human)) was 52%, the kinase still bound, per cent of control (PAK4 (human)) was 100% and the kinase still bound, per cent of control (CSF1R (human)) was 0.3%. It also gave a kinase still bound, per cent of control [3] of 0.55% and a kinase still bound, per cent of control (FLT3 (human)) of 0%.
